Results on 13 compounds are retold here after the supplement of paper PMC11451515.

Holding throughout (experiment): AUC of viability dose-response curve (% viability x log10 dose units); higher = less sensitive
What all share (settings): 48 h

One assay has as its system P12-Ichikawa. The gist of the method: (§1)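 Over 48 h at 37°C, leukemia cells in 1536-well plates (500 or 1000 cells/well), adapted to each medium, received library compounds in DMSO at 11 threefold doses from 47 μM to 0.79 nM. CellTiter-Glo One luminescence, normalised per plate to DMSO and cell-free wells, was fitted by a four-parameter log-logistic function of log10 dose. The area under the curve was then integrated by trapezoidal rule, after scaling curves above full viability and removing those that failed quality control.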

The subject of a further assay is NOMO1. The gist of the method: as §1
The next assay concerns SEM cells. The gist of the method: as §1
Where [1] appears, read: RPMI 5 mM glucose + 10% dialyzed FBS.

Turning to `CC(C)(C)C1=NC2=C([NH]1)C3=CC=C(F)C=C3C4=C2\C=C/NC4=O`, the “AUC of viability dose-response curve” value with P12-Ichikawa (HPLM + 10% dialyzed FBS) was determined as 391; in the assay on P12-Ichikawa (RPMI 5 mM glucose + 10% FBS), 404; in the assay with P12-Ichikawa (setting [1]), 408; in the assay on NOMO1 (HPLM + 10% dialyzed FBS) it was 415; in the assay with NOMO1 (RPMI 5 mM glucose + 10% FBS), 412; with NOMO1 (setting [1]), 408. Besides, the “AUC of viability dose-response curve” value with SEM cells (HPLM + 10% dialyzed FBS) was 384; with SEM cells (RPMI 5 mM glucose + 10% FBS) it was 378; with SEM cells (setting [1]), 384.

Take `COc1cc(/C=C/C(=O)CC(=O)/C=C/c2ccc(O)c(OC)c2)ccc1O`: the “AUC of viability dose-response curve” value in the assay with P12-Ichikawa (HPLM + 10% dialyzed FBS) was 416; in the assay with P12-Ichikawa (RPMI 5 mM glucose + 10% FBS), 431; in the assay on P12-Ichikawa (setting [1]) it was 433; in the assay on NOMO1 (HPLM + 10% dialyzed FBS), 419; with NOMO1 (RPMI 5 mM glucose + 10% FBS) it was 440; in the assay with NOMO1 (setting [1]), 441. The “AUC of viability dose-response curve” value amounted to 406 in the assay with SEM cells (HPLM + 10% dialyzed FBS), 409 in the assay on SEM cells (RPMI 5 mM glucose + 10% FBS) and 417 in the assay on SEM cells (setting [1]).

Take `N#Cc1c(C2CCNCC2)cc(-c2c(O)cccc2OCC2CC2)nc1N`: the “AUC of viability dose-response curve” value in the assay on P12-Ichikawa (HPLM + 10% dialyzed FBS) amounted to 453; with P12-Ichikawa (RPMI 5 mM glucose + 10% FBS), 430; in the assay with P12-Ichikawa (setting [1]), 446; with NOMO1 (HPLM + 10% dialyzed FBS), 455; with NOMO1 (RPMI 5 mM glucose + 10% FBS), 450; with NOMO1 (setting [1]) it was 447. Also, the “AUC of viability dose-response curve” value in the assay on SEM cells (HPLM + 10% dialyzed FBS) amounted to 441; with SEM cells (RPMI 5 mM glucose + 10% FBS) it was 446; in the assay on SEM cells (setting [1]), 435.

For the compound `CCC1=C(C)CN(C(=O)NCCc2ccc(S(=O)(=O)NC(=O)N[C@H]3CC[C@H](C)CC3)cc2)C1=O`, the “AUC of viability dose-response curve” value with P12-Ichikawa (HPLM + 10% dialyzed FBS) turned out to be 458; in the assay on P12-Ichikawa (RPMI 5 mM glucose + 10% FBS) it was 442; with P12-Ichikawa (setting [1]) it was 458; in the assay on NOMO1 (HPLM + 10% dialyzed FBS) it was 475; with NOMO1 (RPMI 5 mM glucose + 10% FBS) it was 439; with NOMO1 (setting [1]), 457. Also, the results for the “AUC of viability dose-response curve” value in the assay on SEM cells (HPLM + 10% dialyzed FBS), in the assay on SEM cells (RPMI 5 mM glucose + 10% FBS) and in the assay on SEM cells (setting [1]) were 417, 443 and 445, respectively.

On to `CCOc1cc2c(c(F)c1OCC)C(=N)N(CC(=O)c1cc(N3CCOCC3)c(OC)c(C(C)(C)C)c1)C2`, for which the “AUC of viability dose-response curve” value in the assay on P12-Ichikawa (HPLM + 10% dialyzed FBS) worked out at 465; with P12-Ichikawa (RPMI 5 mM glucose + 10% FBS) it was 472; in the assay with P12-Ichikawa (setting [1]), 475; with NOMO1 (HPLM + 10% dialyzed FBS) it was 464; in the assay on NOMO1 (RPMI 5 mM glucose + 10% FBS) it was 435; in the assay on NOMO1 (setting [1]) it was 453. Also, the “AUC of viability dose-response curve” value in the assay on SEM cells (HPLM + 10% dialyzed FBS) is 465; in the assay with SEM cells (RPMI 5 mM glucose + 10% FBS) it was 464; in the assay with SEM cells (setting [1]) it was 453.

Turning to `COC1=CC=C(C=C1)C/2=C/OC3=CC(=CC=C3C2=O)O`, the “AUC of viability dose-response curve” value is 451 with P12-Ichikawa (HPLM + 10% dialyzed FBS); 461 with P12-Ichikawa (RPMI 5 mM glucose + 10% FBS); 456 with P12-Ichikawa (setting [1]); 422 in the assay on NOMO1 (HPLM + 10% dialyzed FBS); 451 with NOMO1 (RPMI 5 mM glucose + 10% FBS); 437 in the assay on NOMO1 (setting [1]). For the same compound, the “AUC of viability dose-response curve” value in the assay on SEM cells (HPLM + 10% dialyzed FBS) stood at 445; in the assay on SEM cells (RPMI 5 mM glucose + 10% FBS), 458; in the assay with SEM cells (setting [1]), 430.

As for `Clc1ccc(COC(Cn2ccnc2)c2ccc(Cl)cc2Cl)cc1` (configuration not stated), the “AUC of viability dose-response curve” value came out at 477 in the assay with P12-Ichikawa (HPLM + 10% dialyzed FBS); 463 with P12-Ichikawa (RPMI 5 mM glucose + 10% FBS); 452 in the assay with P12-Ichikawa (setting [1]); 473 in the assay with NOMO1 (HPLM + 10% dialyzed FBS); 473 with NOMO1 (RPMI 5 mM glucose + 10% FBS); 470 with NOMO1 (setting [1]). Also, the entries for the “AUC of viability dose-response curve” value with SEM cells (HPLM + 10% dialyzed FBS), in the assay with SEM cells (RPMI 5 mM glucose + 10% FBS) and in the assay on SEM cells (setting [1]) were 408, 468 and 431, respectively.

For `Cc1c(OCC(F)(F)F)ccnc1C[S+]([O-])c1nc2ccccc2[nH]1` (configuration not stated), the “AUC of viability dose-response curve” value was 466 in the assay with P12-Ichikawa (HPLM + 10% dialyzed FBS); 459 in the assay on P12-Ichikawa (RPMI 5 mM glucose + 10% FBS); 471 with P12-Ichikawa (setting [1]); 456 in the assay with NOMO1 (HPLM + 10% dialyzed FBS); 469 in the assay on NOMO1 (RPMI 5 mM glucose + 10% FBS); 448 with NOMO1 (setting [1]). Moreover, the “AUC of viability dose-response curve” value came to 420 in the assay on SEM cells (HPLM + 10% dialyzed FBS), 475 with SEM cells (RPMI 5 mM glucose + 10% FBS) and 453 in the assay on SEM cells (setting [1]).

As to `CCc1cc(/C(C)=N/OCc2ccc(C3CCCCC3)c(C(F)(F)F)c2)ccc1CN1CC(C(=O)O)C1`, the “AUC of viability dose-response curve” value with P12-Ichikawa (HPLM + 10% dialyzed FBS) was determined as 418; in the assay with P12-Ichikawa (RPMI 5 mM glucose + 10% FBS), 414; in the assay on P12-Ichikawa (setting [1]) it was 414; with NOMO1 (HPLM + 10% dialyzed FBS), 385; in the assay with NOMO1 (RPMI 5 mM glucose + 10% FBS), 418; with NOMO1 (setting [1]) it was 420. In addition, the “AUC of viability dose-response curve” value in the assay on SEM cells (HPLM + 10% dialyzed FBS) came out at 455; with SEM cells (RPMI 5 mM glucose + 10% FBS) it was 452; in the assay on SEM cells (setting [1]) it was 463.

For `O=C1c2cccc(O)c2C(=O)c2c(O)cc(CO)cc21`, the “AUC of viability dose-response curve” value with P12-Ichikawa (HPLM + 10% dialyzed FBS) amounted to 452; with P12-Ichikawa (RPMI 5 mM glucose + 10% FBS) it was 450; in the assay with P12-Ichikawa (setting [1]), 431; in the assay with NOMO1 (HPLM + 10% dialyzed FBS), 417; in the assay with NOMO1 (RPMI 5 mM glucose + 10% FBS), 424; with NOMO1 (setting [1]), 451. For the same compound, the “AUC of viability dose-response curve” value in the assay on SEM cells (HPLM + 10% dialyzed FBS) worked out at 474; in the assay on SEM cells (RPMI 5 mM glucose + 10% FBS) it was 451; in the assay on SEM cells (setting [1]) it was 422.

With `CN(C)c1nc(N(C)C)nc(N(C)C)n1`, the “AUC of viability dose-response curve” value in the assay on P12-Ichikawa (HPLM + 10% dialyzed FBS) was found to be 435; in the assay with P12-Ichikawa (RPMI 5 mM glucose + 10% FBS) it was 436; with P12-Ichikawa (setting [1]), 441; with NOMO1 (HPLM + 10% dialyzed FBS), 440; with NOMO1 (RPMI 5 mM glucose + 10% FBS), 454; in the assay with NOMO1 (setting [1]) it was 454. The “AUC of viability dose-response curve” value turned out to be 465 in the assay with SEM cells (HPLM + 10% dialyzed FBS), 453 in the assay on SEM cells (RPMI 5 mM glucose + 10% FBS) and 461 in the assay on SEM cells (setting [1]).

On to `COc1ccc2cccc(CCNC(C)=O)c2c1`, for which the “AUC of viability dose-response curve” value in the assay on P12-Ichikawa (HPLM + 10% dialyzed FBS) was found to be 470; in the assay on P12-Ichikawa (RPMI 5 mM glucose + 10% FBS), 468; with P12-Ichikawa (setting [1]), 460; with NOMO1 (HPLM + 10% dialyzed FBS), 434; in the assay on NOMO1 (RPMI 5 mM glucose + 10% FBS), 415; with NOMO1 (setting [1]) it was 440. The “AUC of viability dose-response curve” value in the assay on SEM cells (HPLM + 10% dialyzed FBS) was determined as 451; with SEM cells (RPMI 5 mM glucose + 10% FBS), 453; in the assay on SEM cells (setting [1]) it was 452.

In the case of `NC\1=N\C(=O)N(\C=N1)[C@H]2C[C@H](O)[C@@H](CO)O2`, the “AUC of viability dose-response curve” value was 382 with P12-Ichikawa (HPLM + 10% dialyzed FBS); 368 in the assay on P12-Ichikawa (RPMI 5 mM glucose + 10% FBS); 378 in the assay with P12-Ichikawa (setting [1]); 375 in the assay on NOMO1 (HPLM + 10% dialyzed FBS); 402 in the assay on NOMO1 (RPMI 5 mM glucose + 10% FBS); 417 in the assay on NOMO1 (setting [1]). Also, the “AUC of viability dose-response curve” value in the assay on SEM cells (HPLM + 10% dialyzed FBS) was determined as 362; in the assay with SEM cells (RPMI 5 mM glucose + 10% FBS), 327; in the assay with SEM cells (setting [1]), 309.
